ChEMBL document CHEMBL3046623, “A search of novel antimicrobial based on benzimidazole and 2-pyridone heterocycles” (2012)
≈ marks a conversion by molar mass, not a printed value.

Assays:
Type in all cases: functional
[1] = system: Aspergillus clavatus; test: Antifungal activity against Aspergillus clavatus MTCC 1323 after 72 hr; settings: MTCC 1323, 72 h
[2] = system: Candida albicans; test: Antifungal activity against Candida albicans MTCC 227 after 72 hr; settings: MTCC 227, 72 h
[3] = system: Aspergillus niger; test: Antifungal activity against Aspergillus niger MTCC 282 after 72 hr; settings: MTCC 282, 72 h
[4] = system: Streptococcus pyogenes; test: Antibacterial activity against Streptococcus pyogenes MTCC 442 after 24 to 48 hr by serial dilution method
[5] = system: Pseudomonas aeruginosa; test: Antibacterial activity against Pseudomonas aeruginosa MTCC 1688 after 24 to 48 hr by serial dilution method
[6] = system: Staphylococcus aureus; test: Antibacterial activity against Staphylococcus aureus MTCC 96 after 24 to 48 hr by serial dilution method
[7] = system: Escherichia coli; test: Antibacterial activity against Escherichia coli MTCC 443 after 24 to 48 hr by serial dilution method

Row | SMILES | MIC99 [1] [µg/mL] | MIC99 [2] [µg/mL] | MIC99 [3] [µg/mL] | MIC99 [4] [µg/mL] | MIC99 [5] [µg/mL] | MIC99 [6] [µg/mL] | MIC99 [7] [µg/mL]
1 | C/C(=N\n1c(/N=C/c2ccc([N+](=O)[O-])cc2)c(C#N)c(-c2ccccc2O)c(C#N)c1=O)c1nc2ccccc2[nH]1 | 1000 (≈ 1840 µM) | 500 (≈ 922 µM) | 1000 (≈ 1840 µM) | 250 (≈ 461 µM) | 250 (≈ 461 µM) | 250 (≈ 461 µM) | 250 (≈ 461 µM)
2 | COc1cc(/C=N/c2c(C#N)c(-c3ccccc3O)c(C#N)c(=O)n2/N=C(\C)c2nc3ccccc3[nH]2)ccc1O | 1000 (≈ 1840 µM) | 1000 (≈ 1840 µM) | 1000 (≈ 1840 µM) | 250 (≈ 460 µM) | 100 (≈ 184 µM) | 250 (≈ 460 µM) | 200 (≈ 368 µM)
3 | C/C(=N\n1c(/N=C/c2ccc(N(C)C)cc2)c(C#N)c(-c2ccccc2O)c(C#N)c1=O)c1nc2ccccc2[nH]1 | 500 (≈ 925 µM) | 200 (≈ 370 µM) | 500 (≈ 925 µM) | 100 (≈ 185 µM) | 100 (≈ 185 µM) | 100 (≈ 185 µM) | 62.5 (≈ 116 µM)
4 | C/C(=N\n1c(/N=C/c2cccc(O)c2)c(C#N)c(-c2ccccc2O)c(C#N)c1=O)c1nc2ccccc2[nH]1 | 1000 (≈ 1950 µM) | 500 (≈ 974 µM) | 1000 (≈ 1950 µM) | 500 (≈ 974 µM) | 250 (≈ 487 µM) | 200 (≈ 389 µM) | 250 (≈ 487 µM)
5 | C/C(=N\n1c(/N=C/c2ccccc2O)c(C#N)c(-c2ccccc2O)c(C#N)c1=O)c1nc2ccccc2[nH]1 | 1000 (≈ 1950 µM) | 500 (≈ 974 µM) | 1000 (≈ 1950 µM) | 200 (≈ 389 µM) | 150 (≈ 292 µM) | 200 (≈ 389 µM) | 150 (≈ 292 µM)
6 | C/C(=N\n1c(/N=C/c2ccccc2Cl)c(C#N)c(-c2ccccc2O)c(C#N)c1=O)c1nc2ccccc2[nH]1 | 1000 (≈ 1880 µM) | 1000 (≈ 1880 µM) | 100 (≈ 188 µM) | 250 (≈ 470 µM) | 25 (≈ 47 µM) | 100 (≈ 188 µM) | 250 (≈ 470 µM)
7 | CC1(C)S[C@@H]2[C@H](NC(=O)[C@H](N)c3ccccc3)C(=O)N2[C@H]1C(=O)O [AMPICILLIN] |  |  |  | 100 (≈ 286 µM) | 100 (≈ 286 µM) | 250 (≈ 715 µM) | 100 (≈ 286 µM)
8 | C/C(=N\n1c(/N=C/c2ccc(O)cc2)c(C#N)c(-c2ccccc2O)c(C#N)c1=O)c1nc2ccccc2[nH]1 | 100 (≈ 195 µM) | 500 (≈ 974 µM) | 1000 (≈ 1950 µM) | 50 (≈ 97.4 µM) | 150 (≈ 292 µM) | 250 (≈ 487 µM) | 150 (≈ 292 µM)
9 | C/C(=N\n1c(/N=C/c2ccccc2)c(C#N)c(-c2ccccc2O)c(C#N)c1=O)c1nc2ccccc2[nH]1 | 200 (≈ 402 µM) | 200 (≈ 402 µM) | 100 (≈ 201 µM) | 100 (≈ 201 µM) | 50 (≈ 100 µM) | 250 (≈ 502 µM) | 100 (≈ 201 µM)
10 | C/C(=N\n1c(/N=C/c2cccc([N+](=O)[O-])c2)c(C#N)c(-c2ccccc2O)c(C#N)c1=O)c1nc2ccccc2[nH]1 | 1000 (≈ 1840 µM) | 500 (≈ 922 µM) | 1000 (≈ 1840 µM) | 200 (≈ 369 µM) | 500 (≈ 922 µM) | 200 (≈ 369 µM) | 500 (≈ 922 µM)
11 | COc1cc(/C=N/c2c(C#N)c(-c3ccccc3O)c(C#N)c(=O)n2/N=C(\C)c2nc3ccccc3[nH]2)cc(OC)c1OC | 100 (≈ 170 µM) | 1000 (≈ 1700 µM) | 1000 (≈ 1700 µM) | 500 (≈ 851 µM) | 250 (≈ 425 µM) | 250 (≈ 425 µM) | 200 (≈ 340 µM)
12 | C/C(=N\n1c(/N=C/c2ccc(Cl)cc2)c(C#N)c(-c2ccccc2O)c(C#N)c1=O)c1nc2ccccc2[nH]1 | 1000 (≈ 1880 µM) | 500 (≈ 940 µM) | 1000 (≈ 1880 µM) | 250 (≈ 470 µM) | 250 (≈ 470 µM) | 100 (≈ 188 µM) | 100 (≈ 188 µM)
13 | COC1=CC(=O)C[C@@H](C)[C@]12Oc1c(Cl)c(OC)cc(OC)c1C2=O [GRISEOFULVIN] | 100 (≈ 283 µM) | 500 (≈ 1420 µM) | 100 (≈ 283 µM) |  |  |  | 
